Earlier results in PMC8170883 (Viruses, 2021).

Key:
SARS-Cov-2 = details: cell cultures
SARS-CoV-2 nsp12 (RdRp) = details: blocks binding of RNA to the enzyme

CCN(CC)CCCC(C)Nc1c2ccc(Cl)cc2nc2ccc(OC)cc12 (stereo not shown) [Quinacrine, quinacrine]
Antiviral effect against SARS-CoV-2 (SARS-Cov-2): antiviral effects

Cc1ccc(C(=O)Nc2ccc(S(=O)(=O)O)c3cc(S(=O)(=O)O)cc(S(=O)(=O)O)c23)cc1NC(=O)c1cccc(NC(=O)Nc2cccc(C(=O)Nc3cc(C(=O)Nc4ccc(S(=O)(=O)O)c5cc(S(=O)(=O)O)cc(S(=O)(=O)O)c45)ccc3C)c2)c1 [Suramin]
Antiviral effect against SARS-CoV-2 (SARS-Cov-2): antiviral effects
Inhibition of RdRp (SARS-CoV-2 nsp12 (RdRp)): potent inhibitor

CCN(CC)CCCC(C)Nc1ccnc2cc(Cl)ccc12 (stereo not shown) [Chloroquine, chloroquine]
Antiviral effect against SARS-CoV-2 (SARS-Cov-2): antiviral effects
